Reference: patent US20180353462A1, “[…] AGENTS […] FLAVONOID DERIVATIVES TARGETING KINASES, SIRTUINS AND ONCOGENIC AGENTS FOR THE TREATMENT OF CANCERS” (priority 2015, published 2018)

What was measured:
DRAK2 = biological target: T1, DRAK2 (Homo sapiens, UniProt O94768); assay: Kinase competition binding assay, DRAK2; details: Table 1 kinase panel
T1 construct: made in house
T1 sequence (O94768 1-372): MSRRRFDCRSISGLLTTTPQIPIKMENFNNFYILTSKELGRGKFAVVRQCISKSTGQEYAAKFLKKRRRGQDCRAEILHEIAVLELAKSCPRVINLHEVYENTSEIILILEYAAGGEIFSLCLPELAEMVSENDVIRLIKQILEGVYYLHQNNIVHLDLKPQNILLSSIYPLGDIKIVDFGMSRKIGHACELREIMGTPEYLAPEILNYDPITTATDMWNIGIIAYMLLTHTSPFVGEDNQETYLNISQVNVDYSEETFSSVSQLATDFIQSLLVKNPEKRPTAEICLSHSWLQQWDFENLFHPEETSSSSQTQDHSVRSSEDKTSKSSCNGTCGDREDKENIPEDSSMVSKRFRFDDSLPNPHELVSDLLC
Description: (§1) Cannabis flavonoids and their analogs were subjected to kinase inhibition assay. The compounds were first screened at a single concentration of 10 μM in the primary assay. […]. To determine the kd or IC50 values, competition binding assays were established, authenticated and executed as described previously. Fabian et al., “A Small Molecule-Kinase Interaction Map For Clinical Kinase Inhibitors.”, Nat Biotechnol, 23(3):329-36, Epub (2005). See also, Karaman et al., “A Quantitative Analysis Of Kinase Inhibitor Selectivity”, Nat. Biotechnol. […] For most assays, kinases were fused to T7 phage strains (Fabian, supra) and for the other assays, kinases were produced in HEK-293 cells after which they were tagged with DNA for quantitative PCR detection. In general, full-length constructs were used for small, single domain kinases, and catalytic domain constructs for large multi-domain kinases. The binding assays utilized streptavidin-coated magnetic beads treated with biotinylated small molecule ligands for 30 minutes at room temperature which generated affinity resins for the kinase assays. The liganded beads were blocked with excess biotin and washed with blocking buffer (SeaBlock (Pierce), 1% BSA, 0.05% Tween 20, 1 mM DTT) to remove unbound ligand and to reduce non-specific phage binding. […] Test compounds were prepared as 40× stocks in 100% DMSO and diluted directly into the assay (Final DMSO concentration=2.5%). All reactions were performed in polypropylene 384-well plates in a final volume of 0.04 ml. […] The beads were then re-suspended in elution buffer (1×PBS, 0.05% Tween 20, 0.5 μM non-biotinylated affinity ligand) and incubated at room temperature with shaking for 30 minutes. The kinase concentration in the eluates was measured by quantitative PCR. An illustration of the kinase interaction process is presented below. Kd/IC50 values were determined using a standard dose response curve using the hill equation. Curves were fitted using a non-linear least square fit with the Levenberg-Marquardt algorithm.
(§2) The compound(s) were screened at 10 μM and results for primary screen binding interactions are reported as ‘% Ctrl’, where lower numbers indicate stronger hits in the matrix.

DYRK1B = biological target: T2, DYRK1B (Homo sapiens, UniProt Q9Y463); assay: Kinase competition binding assay, DYRK1B; details: Table 1 kinase panel
T2 construct: made in house
Description: as §1, §2

FMS/CSF1R = biological target: T3, FMS/CSF1R (Homo sapiens, UniProt P07333); assay: Kinase competition binding assay, FMS/CSF1R; details: Table 1 kinase panel
T3 construct: made in house
Description: as §1, §2

MEK5 = biological target: T4, MEK5 (Homo sapiens, UniProt Q13163); assay: Kinase competition binding assay, MEK5; details: Table 1 kinase panel
T4 construct: made in house
T4 sequence (Q13163 1-448): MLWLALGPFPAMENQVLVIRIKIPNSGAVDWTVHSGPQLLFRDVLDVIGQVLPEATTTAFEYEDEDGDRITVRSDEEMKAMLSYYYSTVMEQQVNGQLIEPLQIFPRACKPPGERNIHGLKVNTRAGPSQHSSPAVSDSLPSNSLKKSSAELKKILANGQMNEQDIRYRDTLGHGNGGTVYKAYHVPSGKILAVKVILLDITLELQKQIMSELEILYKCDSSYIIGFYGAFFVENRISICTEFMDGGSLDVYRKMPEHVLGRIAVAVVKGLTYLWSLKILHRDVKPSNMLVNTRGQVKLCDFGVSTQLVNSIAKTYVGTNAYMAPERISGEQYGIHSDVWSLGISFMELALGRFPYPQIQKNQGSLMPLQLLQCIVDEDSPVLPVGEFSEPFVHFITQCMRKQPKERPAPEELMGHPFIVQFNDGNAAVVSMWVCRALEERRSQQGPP
Description: as §1, §2

PDGFRB = biological target: T5, PDGFRB (Homo sapiens, UniProt P09619); assay: Kinase competition binding assay, PDGFRB; details: Table 1 kinase panel
T5 construct: catalytic domain constructs for large multi-domain kinases; T7 phage fusion (most assays) or DNA tag for qPCR (HEK-293-made kinases); made in house
Description: as §1, §2

PIK4CB = biological target: T6, PIK4CB (Homo sapiens, UniProt Q9UBF8); assay: Kinase competition binding assay, PIK4CB; details: Table 1 kinase panel
T6 construct: T7 phage fusion (most assays) or DNA tag for qPCR (HEK-293-made kinases); made in house
Description: as §1, §2

SIRT-2 = biological target: T7, SIRT-2 (Homo sapiens, UniProt Q8IXJ6); assay: Inhibition of sirtuins, SIRT-2; format: biochemical; details: Table 3 SIRT
T7 sequence (Q8IXJ6 1-389): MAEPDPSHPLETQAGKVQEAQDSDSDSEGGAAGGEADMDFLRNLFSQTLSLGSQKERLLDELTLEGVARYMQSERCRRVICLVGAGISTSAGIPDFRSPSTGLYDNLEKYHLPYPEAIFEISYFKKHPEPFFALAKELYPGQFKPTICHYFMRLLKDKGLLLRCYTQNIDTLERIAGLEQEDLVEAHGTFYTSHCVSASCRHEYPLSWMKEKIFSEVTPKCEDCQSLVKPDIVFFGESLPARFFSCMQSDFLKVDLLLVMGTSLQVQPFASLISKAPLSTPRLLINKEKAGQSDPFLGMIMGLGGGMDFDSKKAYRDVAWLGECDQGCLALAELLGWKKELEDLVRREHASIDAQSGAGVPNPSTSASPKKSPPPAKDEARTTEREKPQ
Text: (§3) Inhibition of Sirtuins, Matrix Metalloproteinase, Bromodomains was Also Confirmed Using Standard Protocols and the Results are Present in Table 2.

SIRT-3 = biological target: T8, SIRT-3 (Homo sapiens, UniProt Q9NTG7); assay: Inhibition of sirtuins, SIRT-3; format: biochemical; details: Table 3 SIRT
T8 sequence (Q9NTG7 1-399): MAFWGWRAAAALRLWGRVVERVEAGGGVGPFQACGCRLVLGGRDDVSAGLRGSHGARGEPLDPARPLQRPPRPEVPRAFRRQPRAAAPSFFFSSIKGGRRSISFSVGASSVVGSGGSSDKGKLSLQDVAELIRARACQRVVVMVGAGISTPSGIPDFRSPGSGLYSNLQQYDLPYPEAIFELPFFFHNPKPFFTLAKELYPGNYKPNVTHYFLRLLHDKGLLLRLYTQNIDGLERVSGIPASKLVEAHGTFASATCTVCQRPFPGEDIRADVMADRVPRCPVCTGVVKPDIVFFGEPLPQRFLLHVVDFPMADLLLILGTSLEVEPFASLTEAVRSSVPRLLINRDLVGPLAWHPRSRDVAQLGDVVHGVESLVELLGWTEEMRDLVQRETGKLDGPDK
Text: as §3

T5 sequence (P09619 600-962 limits assumed): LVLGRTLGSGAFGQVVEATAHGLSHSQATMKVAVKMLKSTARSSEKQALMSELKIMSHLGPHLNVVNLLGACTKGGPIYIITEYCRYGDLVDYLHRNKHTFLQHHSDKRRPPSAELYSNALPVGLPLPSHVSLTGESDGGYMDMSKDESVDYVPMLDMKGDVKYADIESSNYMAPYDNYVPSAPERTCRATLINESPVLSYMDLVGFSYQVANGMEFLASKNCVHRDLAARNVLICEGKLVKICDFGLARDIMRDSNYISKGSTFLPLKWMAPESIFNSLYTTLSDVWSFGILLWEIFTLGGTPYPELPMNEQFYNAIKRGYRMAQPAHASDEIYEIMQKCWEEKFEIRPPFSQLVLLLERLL
T6 sequence (Q9UBF8 whole entry, the tested form may be a part): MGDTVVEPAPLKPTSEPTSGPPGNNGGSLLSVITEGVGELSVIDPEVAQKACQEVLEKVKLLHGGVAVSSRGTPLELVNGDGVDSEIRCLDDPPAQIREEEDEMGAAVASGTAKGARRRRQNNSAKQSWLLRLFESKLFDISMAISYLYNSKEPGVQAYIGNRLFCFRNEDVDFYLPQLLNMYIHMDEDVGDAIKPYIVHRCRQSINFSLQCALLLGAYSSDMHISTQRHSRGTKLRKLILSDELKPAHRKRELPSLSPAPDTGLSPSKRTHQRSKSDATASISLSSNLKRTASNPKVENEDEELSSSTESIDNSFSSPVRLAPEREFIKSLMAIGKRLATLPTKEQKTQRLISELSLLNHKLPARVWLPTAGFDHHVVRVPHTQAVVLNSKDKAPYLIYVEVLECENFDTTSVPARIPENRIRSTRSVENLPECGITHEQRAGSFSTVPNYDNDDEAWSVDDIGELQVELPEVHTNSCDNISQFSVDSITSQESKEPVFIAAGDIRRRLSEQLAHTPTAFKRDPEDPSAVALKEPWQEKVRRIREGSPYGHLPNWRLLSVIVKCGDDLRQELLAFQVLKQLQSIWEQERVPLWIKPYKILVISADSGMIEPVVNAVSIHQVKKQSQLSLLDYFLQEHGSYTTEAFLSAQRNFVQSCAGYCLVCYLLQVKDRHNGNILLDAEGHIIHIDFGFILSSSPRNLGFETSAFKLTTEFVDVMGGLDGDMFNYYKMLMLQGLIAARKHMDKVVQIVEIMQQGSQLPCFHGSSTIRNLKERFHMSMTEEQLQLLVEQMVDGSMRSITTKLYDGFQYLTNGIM
T3 sequence (P07333 20-972): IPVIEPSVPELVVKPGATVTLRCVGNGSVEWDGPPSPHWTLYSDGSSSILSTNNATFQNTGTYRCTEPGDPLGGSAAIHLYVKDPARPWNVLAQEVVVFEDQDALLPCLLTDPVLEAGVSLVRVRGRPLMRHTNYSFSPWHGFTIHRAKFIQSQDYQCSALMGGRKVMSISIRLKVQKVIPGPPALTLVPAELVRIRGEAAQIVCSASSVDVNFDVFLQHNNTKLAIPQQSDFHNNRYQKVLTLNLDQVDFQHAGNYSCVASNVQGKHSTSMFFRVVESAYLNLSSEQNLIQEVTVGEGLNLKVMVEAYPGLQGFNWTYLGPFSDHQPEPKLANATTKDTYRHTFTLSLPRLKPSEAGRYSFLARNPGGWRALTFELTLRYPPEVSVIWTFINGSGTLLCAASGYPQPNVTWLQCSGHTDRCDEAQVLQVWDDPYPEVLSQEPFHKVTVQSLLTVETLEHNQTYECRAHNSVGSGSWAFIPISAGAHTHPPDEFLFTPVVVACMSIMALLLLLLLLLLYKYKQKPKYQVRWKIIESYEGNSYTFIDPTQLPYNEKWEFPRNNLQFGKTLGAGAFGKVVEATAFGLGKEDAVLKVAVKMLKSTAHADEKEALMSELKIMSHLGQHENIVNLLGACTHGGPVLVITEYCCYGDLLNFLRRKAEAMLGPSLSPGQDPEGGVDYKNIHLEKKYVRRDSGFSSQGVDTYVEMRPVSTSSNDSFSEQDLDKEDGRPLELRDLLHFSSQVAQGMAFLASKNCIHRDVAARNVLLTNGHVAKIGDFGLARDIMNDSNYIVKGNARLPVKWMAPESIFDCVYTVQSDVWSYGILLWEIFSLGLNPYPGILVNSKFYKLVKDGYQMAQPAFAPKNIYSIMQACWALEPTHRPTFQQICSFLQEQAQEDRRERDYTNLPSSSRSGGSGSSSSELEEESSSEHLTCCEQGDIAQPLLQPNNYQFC
T2 sequence (Q9Y463 whole entry): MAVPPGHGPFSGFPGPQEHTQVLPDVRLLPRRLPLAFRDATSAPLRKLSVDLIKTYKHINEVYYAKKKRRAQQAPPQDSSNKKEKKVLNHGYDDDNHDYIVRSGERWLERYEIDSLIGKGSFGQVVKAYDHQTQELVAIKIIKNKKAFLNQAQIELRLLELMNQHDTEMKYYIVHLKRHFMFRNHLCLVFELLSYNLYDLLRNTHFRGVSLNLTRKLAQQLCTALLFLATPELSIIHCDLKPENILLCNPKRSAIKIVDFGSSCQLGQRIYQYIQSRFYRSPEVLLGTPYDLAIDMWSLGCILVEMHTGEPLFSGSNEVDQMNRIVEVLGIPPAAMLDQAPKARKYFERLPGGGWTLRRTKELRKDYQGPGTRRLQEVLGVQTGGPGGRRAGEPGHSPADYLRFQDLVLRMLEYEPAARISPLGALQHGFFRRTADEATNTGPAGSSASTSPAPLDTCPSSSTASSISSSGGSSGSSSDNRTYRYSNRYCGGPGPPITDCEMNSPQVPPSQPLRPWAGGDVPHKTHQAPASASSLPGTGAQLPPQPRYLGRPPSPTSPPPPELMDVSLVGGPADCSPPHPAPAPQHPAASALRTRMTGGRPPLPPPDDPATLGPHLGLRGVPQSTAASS

SMILES | IC50 (DRAK2) [nM] | IC50 (DYRK1B) [nM] | IC50 (FMS/CSF1R) [nM] | IC50 (MEK5) [nM] | IC50 (PDGFRB) [nM] | IC50 (PIK4CB) [nM] | IC50 (SIRT-2) [µM] | IC50 (SIRT-3) [µM]
COc1cc(-c2cc(=O)c3c(O)c(C/C=C(\C)CCC=C(C)C)c(O)cc3o2)ccc1O [FBL-03A] | > 20000 | > 20000 | 1500 | 140 | 330 | 670 | 2.57 | 94.9
COc1cc(-c2cc(=O)c3c(O)c(CC=C(C)C)c(O)cc3o2)ccc1O [FBL-03B] | < 1000 | 1670 | 199 | > 1000 | 1160 |  | 10.8 | 77
COc1cc(-c2cc(=O)c3c(O)cc(O)c(C/C=C(\C)CCC=C(C)C)c3o2)ccc1O [FBL-03C] | 980 | 6400 | 1200 | 84 | > 1000 | > 1000 | 14 | 65.4
COc1ccc(-c2cc(=O)c3c(O)c(C/C=C(\C)CCC=C(C)C)c(O)cc3o2)cc1OC [FBL-03D] | > 30000 | > 30000 | > 30000 | > 30000 | > 30000 | > 30000 | 2.38 | 
COc1cc(-c2cc(=O)c3c(O)cc(O)c(CC=C(C)C)c3o2)ccc1O [FBL-03G] | > 10000 | 22.8 | 4 | > 1000 | 3310 | > 20000 | 24.1 | 66.4
